The values that follow are results of earlier work, collected in patent US9198430B2, “Anti-parasitic composition comprising a macrocyclic lactone and levamisole and method of treatment of parasitic infestation” (BAYER NEW ZEALAND LIMITED, priority 2011, dated 2015).

For the series the following is noted: unlabelled doramectin 0.2 mg/kg bodyweight.

Each structure is given as a SMILES string. Like-named read-outs stand apart in the source and are kept apart here.

In the case of `CO[C@H]1C[C@H](O[C@H]2[C@H](C)O[C@@H](O[C@@H]3/C(C)=C/C[C@@H]4C[C@@H](C[C@]5(C=C[C@H](C)[C@@H](C6CCCCC6)O5)O4)OC(=O)[C@@H]4C=C(C)[C@@H](O)[C@H]5OC/C(=C\C=C\[C@@H]3C)[C@]54O)C[C@@H]2OC)O[C@@H](C)[C@@H]1O` [doramectin, Doramectin], for the setting “Day 21”, the “Residues of Doramectin, Fat” value was 182 µg/kg; the “Residues of Doramectin, Injection (site)” value is 1900 µg/kg; the “Residues of Doramectin, Kidney” value is 11 µg/kg; the “Residues of Doramectin, Liver” value is 107 µg/kg. In addition, the “Residues of Doramectin, Muscle” value (Day 21) was less than 7 µg/kg. For the setting “Day 28”, the “Residues of Doramectin, Fat” value is 94 µg/kg; the “Residues of Doramectin, Injection (site)” value is 380 µg/kg; the “Residues of Doramectin, Kidney” value was 8.8 µg/kg; the “Residues of Doramectin, Liver” value was 66 µg/kg. Further, the “Residues of Doramectin, Muscle” value (Day 28) was less than 4 µg/kg. Under “Day 35”, the “Residues of Doramectin, Fat” value was 57 µg/kg; the “Residues of Doramectin, Injection (site)” value is 930 µg/kg; the “Residues of Doramectin, Kidney” value is less than 4.5 µg/kg; the “Residues of Doramectin, Liver” value was 29 µg/kg. Further, the “Residues of Doramectin, Muscle” value (Day 35) is less than 3 µg/kg.
